Experimental data as given in ChEMBL document CHEMBL4359918, “Discovery of tissue selective liver X receptor agonists for the treatment of atherosclerosis without causing hepatic lipogenesis” (Eur J Med Chem, 2019).
Each block holds one compound with its values, some of them ahead of it. The source made the active and inactive calls. No cut-off for these calls is given here.

Assays:
HepG2 [1] = assay: Lipid lowering activity in human HepG2 cells assessed as decrease in OA-induced TG accumulation at 10 uM incubated for 24 hrs; type: functional, cell-based
[2] = Selectivity index, ratio of compound effect for agonist activity at human LXRalpha to compound effect for agonist activity at […]
[3] = molecular target: T1, Oxysterols receptor LXR-beta (Rattus norvegicus) (UniProt Q62755); assay: Agonist activity at rat LXRbeta transfected in HEK293T cells at 10 uM incubated for 20 hrs by luciferase reporter gene assay relative to control; type: cell-based
T1 sequence (whole entry): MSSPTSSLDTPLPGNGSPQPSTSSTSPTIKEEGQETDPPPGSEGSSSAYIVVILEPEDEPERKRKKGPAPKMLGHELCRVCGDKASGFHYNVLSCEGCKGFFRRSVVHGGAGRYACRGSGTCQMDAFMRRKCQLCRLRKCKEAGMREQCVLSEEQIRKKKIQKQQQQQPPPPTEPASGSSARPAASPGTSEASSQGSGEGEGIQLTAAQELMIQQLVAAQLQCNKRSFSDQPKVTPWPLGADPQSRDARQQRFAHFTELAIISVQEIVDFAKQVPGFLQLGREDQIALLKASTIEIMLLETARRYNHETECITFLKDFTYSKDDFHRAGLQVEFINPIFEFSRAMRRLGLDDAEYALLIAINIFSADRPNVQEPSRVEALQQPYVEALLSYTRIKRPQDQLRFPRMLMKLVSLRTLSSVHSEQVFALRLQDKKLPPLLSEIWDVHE

[4] = Agonist activity at LXR in mouse 3T3L1 preadipocytes assessed as increase in sREBP-1c mRNA expression at 10 uM by qPCR analysis; type: cell-based
[5] = molecular target: Liver X receptor (Homo sapiens) (UniProt Q13133+P55055); assay: Agonist activity at LXR in human HepG2 cells assessed as increase in ABCA1 mRNA expression at 10 uM incubated for 24 hrs by qPCR analysis; type: cell-based
3T3-L1 [6] = assay: Anti-adipogenic activity in mouse 3T3L1 preadipocytes assessed as decrease in lipid accumulation by Oil Red O staining-based microscopic analysis; type: functional, cell-based
HEK-293T = assay: Cytotoxicity against HEK293T cells assessed as reduction in cell viability at […] incubated for 24 hrs by MTT assay; type: cell-based; conditions: human
3T3-L1 [7] = assay: Anti-adipogenic activity in mouse 3T3L1 preadipocytes assessed as decrease in triglyceride accumulation; type: functional, cell-based
[8] = molecular target: T2, LXRalpha (Oxysterols receptor LXR-alpha) (Homo sapiens, UniProt Q13133); assay: Agonist activity at human LXRalpha transfected in HEK293T cells at 10 uM incubated for 20 hrs by luciferase reporter gene assay relative to control; type: cell-based; conditions: HEK293T cells transfected with human LXRalpha, read-out: FC
T2 sequence (Q13133 whole entry): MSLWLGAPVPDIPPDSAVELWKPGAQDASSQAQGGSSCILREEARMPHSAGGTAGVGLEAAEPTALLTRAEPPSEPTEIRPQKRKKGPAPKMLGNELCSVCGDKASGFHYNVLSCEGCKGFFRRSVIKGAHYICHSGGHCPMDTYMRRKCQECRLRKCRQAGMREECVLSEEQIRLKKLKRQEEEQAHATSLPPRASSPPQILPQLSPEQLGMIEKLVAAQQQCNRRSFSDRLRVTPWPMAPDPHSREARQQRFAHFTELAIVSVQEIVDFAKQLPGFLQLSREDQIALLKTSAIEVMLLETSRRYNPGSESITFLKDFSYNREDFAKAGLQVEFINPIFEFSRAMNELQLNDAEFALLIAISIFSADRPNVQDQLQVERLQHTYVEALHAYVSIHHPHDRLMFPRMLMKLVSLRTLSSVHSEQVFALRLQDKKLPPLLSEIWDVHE

RAW264.7 [9] = assay: Anti-atherosclerotic activity in mouse RAW264.7 cells assessed as inhibition of ox-LDL induced lipid accumulation at 10 uM incubated for 48 hrs by ORO staining based microscopic analysis; type: functional, cell-based
3T3-L1 [10] = assay: Cytotoxicity against mouse 3T3L1 preadipocytes assessed as reduction in cell viability at 2 to 50 uM incubated for 24 hrs by MTT assay; type: cell-based; conditions: 3t3-l1, 24 h
Mus musculus [11] = organism: Mus musculus; assay: Agonist activity at LXR in C57BL/6 mouse PBMC assessed as increase in ABCA1 mRNA expression at 10 uM incubated for 48 hrs by qPCR analysis
[12] = Agonist activity at LXR in mouse 3T3L1 preadipocytes assessed as increase in ABCA1 mRNA expression at 10 uM by qPCR analysis; type: cell-based
RAW264.7 [13] = assay: Cytotoxicity against mouse RAW264.7 cells assessed as reduction in cell viability at 2 to 50 µM incubated for 24 hrs by MTT assay; type: cell-based; conditions: raw264.7, 24 h
PBMC [14] = assay: Anti-atherosclerotic activity in C57BL/6 mouse PBMC assessed as inhibition of ox-LDL induced lipid accumulation at 10 uM incubated for 48 hrs by ORO staining based microscopic analysis; type: functional, cell-based
HepG2 [15] = assay: Effect on TG accumulation in human HepG2 cells at 10 uM incubated for 24 hrs; type: ADME, cell-based; conditions: hepg2, 24 h
HepG2 [16] = assay: Cytotoxicity against human HepG2 cells assessed as reduction in cell viability at 2 to 50 uM incubated for 24 hrs by MTT assay; type: cell-based; conditions: hepg2, 24 h
[17] = molecular target: T3, Oxysterols receptor LXR-alpha (Homo sapiens) (UniProt Q13133); assay: Agonist activity at human LXRalpha transfected in HEK293T cells at 10 uM incubated for 20 hrs in presence of LXR antagonist SR9243 by luciferase reporter gene assay relative to control; type: cell-based
T3 sequence (whole entry): T2 sequence (Q13133 whole entry)

RAW264.7 [18] = assay: Agonist activity at LXR in mouse RAW264.7 cells assessed as increase in ABCA1 mRNA expression at 10 uM incubated for 48 hrs by qPCR analysis; type: cell-based
Mus musculus [19] = assay: Anti-atherosclerotic activity in high fat diet-induced C57BL/6 mouse model of hypercholesterolemia assessed as reduction in hepatic triglyceride level at 10 to 40 mg/kg, po administered for 12 weeks; type: functional, organism-based
RAW264.7 [20] = assay: Effect on LXR mRNA expression in mouse RAW264.7 cells at 10 uM incubated for 48 hrs by qPCR analysis; type: cell-based; conditions: raw264.7, 48 h
[21] = Agonist activity at LXR in mouse RAW264.7 cells assessed as increase in sREBP-1c mRNA expression at 10 uM incubated for 48 hrs by qPCR analysis; type: cell-based; conditions: raw264.7, 48 h
Mus musculus [22] = assay: Anti-atherosclerotic activity in high fat diet-induced C57BL/6 mouse model of hypercholesterolemia assessed as increase in ABCG8 mRNA expression in liver at 10 to 40 mg/kg, po administered for 12 weeks by RT-qPCR analysis; type: functional, organism-based
Mus musculus [23] = assay: Anti-atherosclerotic activity in high fat diet-induced C57BL/6 mouse model of hypercholesterolemia assessed as increase in ABCG8 mRNA expression in ileum at 10 to 40 mg/kg, po administered for 12 weeks by RT-qPCR analysis; type: functional, organism-based
Mus musculus [24] = assay: Anti-atherosclerotic activity in high fat diet-induced C57BL/6 mouse model of hypercholesterolemia assessed as reduction in hepatic total cholesterol level at 10 to 40 mg/kg, po administered for 12 weeks; type: functional, organism-based
Mus musculus [25] = assay: Anti-atherosclerotic activity in high fat diet-induced C57BL/6 mouse model of hypercholesterolemia assessed as increase in ABCA1 mRNA expression in small intestine at 10 to 40 mg/kg, po administered for 12 weeks by RT-qPCR analysis; type: functional, organism-based
Mus musculus [26] = assay: Anti-atherosclerotic activity in high fat diet-induced C57BL/6 mouse model of hypercholesterolemia assessed as increase in ABCG5 mRNA expression in liver at 10 to 40 mg/kg, po administered for 12 weeks by RT-qPCR analysis; type: functional, organism-based
Mus musculus [27] = assay: Anti-atherosclerotic activity in high fat diet-induced C57BL/6 mouse model of hypercholesterolemia assessed as decrease in ACC mRNA expression in liver at 10 to 40 mg/kg, po administered for 12 weeks by RT-qPCR analysis; type: functional, organism-based
Mus musculus [28] = assay: Anti-atherosclerotic activity in high fat diet-induced C57BL/6 mouse model of hypercholesterolemia assessed as decrease in sREBP-1c mRNA expression in liver at 10 to 40 mg/kg, po administered for 12 weeks by RT-qPCR analysis; type: functional, organism-based
[29] = Agonist activity at LXR in C57BL/6 mouse PBMC assessed as increase in sREBP-1c mRNA expression at 10 uM incubated for 48 hrs by qPCR analysis
Mus musculus [30] = assay: Anti-atherosclerotic activity in high fat diet-induced C57BL/6 mouse model of hypercholesterolemia assessed as decrease in SCD1 mRNA expression in liver at 10 to 40 mg/kg, po administered for 12 weeks by RT-qPCR analysis; type: functional, organism-based
PBMC [31] = assay: Effect on LXR mRNA expression in C57BL/6 mouse PBMC at 10 uM incubated for 48 hrs by qPCR analysis; type: cell-based
Mus musculus [32] = assay: Anti-atherosclerotic activity in high fat diet-induced C57BL/6 mouse model of hypercholesterolemia assessed as reduction in liver weight at 10 to 40 mg/kg, po administered for 12 weeks by H and E staining-based assay; type: functional, organism-based
Mus musculus [33] = assay: Anti-atherosclerotic activity in high fat diet-induced C57BL/6 mouse model of hypercholesterolemia assessed as reduction in serum total cholesterol level at 10 to 40 mg/kg, po administered for 12 weeks; type: functional, organism-based
Mus musculus [34] = assay: Anti-atherosclerotic activity in high fat diet-induced C57BL/6 mouse model of hypercholesterolemia assessed as increase in ABCG5 mRNA expression in ileum at 10 to 40 mg/kg, po administered for 12 weeks by RT-qPCR analysis; type: functional, organism-based
Mus musculus [35] = assay: Induction of hepatic steatosis in C57BL/6 mouse assessed as effect on serum LDL-C at 50 mg/kg/day, ig administered for 7 days; type: organism-based; conditions: in vivo, po, 168 h
Mus musculus [36] = assay: Anti-atherosclerotic activity in high fat diet-induced C57BL/6 mouse model of hypercholesterolemia assessed as reduction in ALT level at 10 to 40 mg/kg, po administered for 12 weeks; type: functional, organism-based
Mus musculus [37] = assay: Anti-atherosclerotic activity in high fat diet-induced C57BL/6 mouse model of hypercholesterolemia assessed as increase in ABCG1 mRNA expression in small intestine at 10 to 40 mg/kg, po administered for 12 weeks by RT-qPCR analysis; type: functional, organism-based
Mus musculus [38] = assay: Induction of hepatic steatosis in C57BL/6 mouse assessed as accumulation of serum triglyceride level at 50 mg/kg/day, ig administered for 7 days; type: organism-based; conditions: in vivo, po, 168 h
RAW264.7 [39] = assay: Inhibition of macrophage foam cell formation in mouse RAW264.7 cells assessed as reduction in ox-LDL induced total cholesterol level at 10 uM measured after 48 hrs; type: functional, cell-based
Mus musculus [40] = assay: Anti-atherosclerotic activity in high fat diet-induced C57BL/6 mouse model of hypercholesterolemia assessed as increase in CYP7A1 mRNA expression in liver at 10 to 40 mg/kg, po administered for 12 weeks by RT-qPCR analysis; type: functional, organism-based
Mus musculus [41] = assay: Anti-atherosclerotic activity in high fat diet-induced C57BL/6 mouse model of hypercholesterolemia assessed as reduction in liver fat administered orally for 12 weeks by ORO staining based microscopic analysis; type: functional, organism-based

Chain of Liver X receptor (Homo sapiens) (P55055 whole entry, looked up, one chain of several): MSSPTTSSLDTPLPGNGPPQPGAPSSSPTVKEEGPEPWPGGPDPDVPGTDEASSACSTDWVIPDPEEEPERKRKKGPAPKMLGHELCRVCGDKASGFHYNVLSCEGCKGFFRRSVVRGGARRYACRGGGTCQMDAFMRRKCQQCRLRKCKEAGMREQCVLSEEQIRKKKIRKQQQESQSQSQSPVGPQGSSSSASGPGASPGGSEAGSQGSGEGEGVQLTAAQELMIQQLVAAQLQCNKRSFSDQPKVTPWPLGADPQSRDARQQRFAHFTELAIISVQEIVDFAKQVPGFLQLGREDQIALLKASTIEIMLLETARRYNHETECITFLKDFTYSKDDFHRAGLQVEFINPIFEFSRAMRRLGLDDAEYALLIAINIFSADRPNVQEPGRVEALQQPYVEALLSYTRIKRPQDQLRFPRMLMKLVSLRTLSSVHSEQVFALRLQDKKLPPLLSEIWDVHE

SMILES: CC(C)C(=O)CC[C@@H](C)[C@H]1CC[C@H]2[C@@H]3CC=C4C[C@@H](O)CC[C@]4(C)[C@H]3CC[C@]12C
Activity (HepG2 [1]): Active | Ratio [2]: 1.63 | fold change (FC) [3]: 3.85 | Activity [4]: Not Active | Activity [5]: Active | Activity (3T3-L1 [6]): Active | Activity (HEK-293T): Non-Toxic | Activity (3T3-L1 [7]): Active | fold induction at 20 h, 10 µM [8]: 2.36 | inhibition (RAW264.7 [9]): Active | Activity (3T3-L1 [10]): Non-Toxic | Activity (Mus musculus [11]): Active | Activity [12]: Active | Activity (RAW264.7 [13]): Non-Toxic | inhibition (PBMC [14]): Active | Activity (HepG2 [15]): Non-Toxic | Activity (HepG2 [16]): Non-Toxic | Activity [17]: inactive | Activity (RAW264.7 [18]): Active

Activity [21]: Not Active | fold change (FC) [3]: 4.27 | Activity [5]: Active | Activity [29]: Active | fold induction at 20 h, 10 µM [8]: 4.27 | Activity (Mus musculus [11]): Active | Activity [12]: Active | Activity [17]: inactive
SMILES: CC(C)C(=O)CC[C@@H](C)[C@H]1CC[C@H]2[C@@H]3C[C@H](O)[C@H]4C[C@H](O)CC[C@]4(C)[C@H]3CC[C@]12C
Activity (Mus musculus [19]): Active | Activity (HepG2 [1]): Active | Activity (RAW264.7 [20]): Non-Toxic | Ratio [2]: 1 | Activity (Mus musculus [22]): Active | Activity (Mus musculus [23]): Active | Activity (Mus musculus [24]): Active | Activity (Mus musculus [25]): Active | Activity (Mus musculus [26]): Active | Activity (Mus musculus [27]): Active | Activity (3T3-L1 [6]): inactive | Activity (HEK-293T): Non-Toxic | Activity (Mus musculus [28]): Active | Activity (Mus musculus [30]): Active | Activity (3T3-L1 [7]): inactive | Activity (PBMC [31]): Non-Toxic | Activity (Mus musculus [32]): Active | inhibition (RAW264.7 [9]): Active | Activity (Mus musculus [33]): Active | Activity (3T3-L1 [10]): Non-Toxic | Activity (Mus musculus [34]): Active | Activity (RAW264.7 [13]): Non-Toxic | Activity (Mus musculus [35]): Non-Toxic | Activity (Mus musculus [36]): Active | inhibition (PBMC [14]): Active | Activity (Mus musculus [37]): Active | Activity (HepG2 [15]): Non-Toxic | Activity (HepG2 [16]): Non-Toxic | Activity (Mus musculus [38]): Non-Toxic | inhibition (RAW264.7 [39]): Active | Activity (Mus musculus [40]): Active | Activity (Mus musculus [41]): Dose-dependent effect | Activity (RAW264.7 [18]): Active
